The target in the first assay is Heat shock protein HSP 90-alpha (Homo sapiens) (UniProt P07900). Description: Inhibition of human His-tagged Hsp90 alpha N-terminal domain ATPase activity expressed in Escherichia coli BL21(DE3) at 100 uM assessed as ADP formation by pyruvate kinase/lactate dehydrogenase-coupled assay.
For `CCn1cc(C(=O)NC(=S)Nc2ccc(C)cc2)c(-c2ccccc2)nc1=O`, the Activity worked out at 33.1 nmol/min/mg.

`CCn1cc(C(=O)NC(=S)Nc2ccc(C(N)=O)cc2)c(-c2ccccc2)nc1=O`: the Activity was determined as 37.5 nmol/min/mg.

Consider `CCn1cc(C(=O)NC(=S)Nc2ccc(OC)cc2)c(-c2ccccc2)nc1=O`, for which the Activity worked out at 11.4 nmol/min/mg.

Consider `CCn1cc(C(=O)NC(=S)Nc2cccc3ccccc23)c(-c2ccccc2)nc1=O`, for which the Activity is 8.19 nmol/min/mg.

With `CCn1cc(C(=O)NC(=S)Nc2ccc(F)cc2)c(-c2ccccc2)nc1=O`, the Activity is 27.6 nmol/min/mg.

In the case of `CCn1cc(C(=O)NC(=S)Nc2ccc(Cl)cc2)c(-c2ccccc2)nc1=O`, the Activity stood at 49.8 nmol/min/mg.

Take `CCn1cc(C(=O)NC(=S)Nc2ccccc2)c(-c2ccccc2)nc1=O`: the Activity turned out to be 26.1 nmol/min/mg.

Take `CCn1cc(C(=O)NC(=S)NCc2ccccc2)c(-c2ccccc2)nc1=O`: the Activity turned out to be 35.9 nmol/min/mg.

Consider `CCn1cc(C(=O)NC(=S)Nc2ccccc2C)c(-c2ccccc2)nc1=O`, for which the Activity was found to be 28.9 nmol/min/mg.

As to `CCn1cc(C(=O)NC(=S)Nc2ccc(Br)cc2)c(-c2ccccc2)nc1=O`, the Activity is 13.5 nmol/min/mg.

A further assay shares this target. Description: Inhibition of human His-tagged Hsp90 alpha N-terminal domain ATPase activity expressed in Escherichia coli BL21(DE3) at 3.125 uM assessed as ADP formation by pyruvate kinase/lactate dehydrogenase-coupled assay.
As to `CCn1cc(C(=O)NC(=S)Nc2ccc(C)cc2)c(-c2ccccc2)nc1=O`, the Activity amounted to 90.2 nmol/min/mg.

Regarding `CCn1cc(C(=O)NC(=S)Nc2ccc(C(N)=O)cc2)c(-c2ccccc2)nc1=O`, the Activity was 93.5 nmol/min/mg.

Consider `CCn1cc(C(=O)NC(=S)Nc2ccc(OC)cc2)c(-c2ccccc2)nc1=O`, for which the Activity was 81.1 nmol/min/mg.

Consider `CCn1cc(C(=O)NC(=S)Nc2cccc3ccccc23)c(-c2ccccc2)nc1=O`, for which the Activity came out at 75.5 nmol/min/mg.

Take `CCn1cc(C(=O)NC(=S)Nc2ccc(F)cc2)c(-c2ccccc2)nc1=O`: the Activity is 92.6 nmol/min/mg.

For `CCn1cc(C(=O)NC(=S)Nc2ccc(Cl)cc2)c(-c2ccccc2)nc1=O`, the Activity was determined as 88.8 nmol/min/mg.

In the case of `CCn1cc(C(=O)NC(=S)Nc2ccccc2)c(-c2ccccc2)nc1=O`, the Activity amounted to 85.3 nmol/min/mg.

Take `CCn1cc(C(=O)NC(=S)NCc2ccccc2)c(-c2ccccc2)nc1=O`: the Activity was found to be 90.2 nmol/min/mg.

As for `CCn1cc(C(=O)NC(=S)Nc2ccccc2C)c(-c2ccccc2)nc1=O`, the Activity was found to be 93.5 nmol/min/mg.

Regarding `CCn1cc(C(=O)NC(=S)Nc2ccc(Br)cc2)c(-c2ccccc2)nc1=O`, the Activity was 80.1 nmol/min/mg.

For the next assay the target is unchanged. Description: Inhibition of human His-tagged Hsp90 alpha N-terminal domain ATPase activity expressed in Escherichia coli BL21(DE3) at 6.25 uM assessed as ADP formation by pyruvate kinase/lactate dehydrogenase-coupled assay.
In the case of `CCn1cc(C(=O)NC(=S)Nc2ccc(C)cc2)c(-c2ccccc2)nc1=O`, the Activity amounted to 80.5 nmol/min/mg.

Turning to `CCn1cc(C(=O)NC(=S)Nc2ccc(C(N)=O)cc2)c(-c2ccccc2)nc1=O`, the Activity worked out at 87.1 nmol/min/mg.

Regarding `CCn1cc(C(=O)NC(=S)Nc2ccc(OC)cc2)c(-c2ccccc2)nc1=O`, the Activity came to 59.4 nmol/min/mg.

For the compound `CCn1cc(C(=O)NC(=S)Nc2cccc3ccccc23)c(-c2ccccc2)nc1=O`, the Activity is 49.5 nmol/min/mg.

Regarding `CCn1cc(C(=O)NC(=S)Nc2ccc(F)cc2)c(-c2ccccc2)nc1=O`, the Activity came to 84.1 nmol/min/mg.

As for `CCn1cc(C(=O)NC(=S)Nc2ccc(Cl)cc2)c(-c2ccccc2)nc1=O`, the Activity was 83.5 nmol/min/mg.

Turning to `CCn1cc(C(=O)NC(=S)Nc2ccccc2)c(-c2ccccc2)nc1=O`, the Activity worked out at 70.3 nmol/min/mg.

Take `CCn1cc(C(=O)NC(=S)NCc2ccccc2)c(-c2ccccc2)nc1=O`: the Activity stood at 80 nmol/min/mg.

Consider `CCn1cc(C(=O)NC(=S)Nc2ccccc2C)c(-c2ccccc2)nc1=O`, for which the Activity worked out at 85.7 nmol/min/mg.

With `CCn1cc(C(=O)NC(=S)Nc2ccc(Br)cc2)c(-c2ccccc2)nc1=O`, the Activity was 63.6 nmol/min/mg.

For a further assay the target is unchanged. Description: Inhibition of human His-tagged Hsp90 alpha N-terminal domain ATPase activity expressed in Escherichia coli BL21(DE3) at 12.5 uM assessed as ADP formation by pyruvate kinase/lactate dehydrogenase-coupled assay.
As to `CCn1cc(C(=O)NC(=S)Nc2ccc(C)cc2)c(-c2ccccc2)nc1=O`, the Activity came to 72.9 nmol/min/mg.

Regarding `CCn1cc(C(=O)NC(=S)Nc2ccc(C(N)=O)cc2)c(-c2ccccc2)nc1=O`, the Activity was 73.4 nmol/min/mg.

Regarding `CCn1cc(C(=O)NC(=S)Nc2ccc(OC)cc2)c(-c2ccccc2)nc1=O`, the Activity came out at 37.7 nmol/min/mg.

As for `CCn1cc(C(=O)NC(=S)Nc2cccc3ccccc23)c(-c2ccccc2)nc1=O`, the Activity was 36.1 nmol/min/mg.

Consider `CCn1cc(C(=O)NC(=S)Nc2ccc(F)cc2)c(-c2ccccc2)nc1=O`, for which the Activity was 72 nmol/min/mg.

As for `CCn1cc(C(=O)NC(=S)Nc2ccc(Cl)cc2)c(-c2ccccc2)nc1=O`, the Activity came to 74.1 nmol/min/mg.

As for `CCn1cc(C(=O)NC(=S)Nc2ccccc2)c(-c2ccccc2)nc1=O`, the Activity was found to be 60.8 nmol/min/mg.

For the compound `CCn1cc(C(=O)NC(=S)NCc2ccccc2)c(-c2ccccc2)nc1=O`, the Activity is 75.1 nmol/min/mg.

Take `CCn1cc(C(=O)NC(=S)Nc2ccccc2C)c(-c2ccccc2)nc1=O`: the Activity came to 70.9 nmol/min/mg.

For `CCn1cc(C(=O)NC(=S)Nc2ccc(Br)cc2)c(-c2ccccc2)nc1=O`, the Activity is 39.7 nmol/min/mg.

For another assay the target is unchanged. The experiment in a line: Inhibition of human His-tagged Hsp90 alpha N-terminal domain ATPase activity expressed in Escherichia coli BL21(DE3) at 50 uM assessed as ADP formation by pyruvate kinase/lactate dehydrogenase-coupled assay.
Take `CCn1cc(C(=O)NC(=S)Nc2ccc(C)cc2)c(-c2ccccc2)nc1=O`: the Activity was 43.4 nmol/min/mg.

Consider `CCn1cc(C(=O)NC(=S)Nc2ccc(C(N)=O)cc2)c(-c2ccccc2)nc1=O`, for which the Activity was determined as 51.1 nmol/min/mg.

For `CCn1cc(C(=O)NC(=S)Nc2ccc(OC)cc2)c(-c2ccccc2)nc1=O`, the Activity turned out to be 16.2 nmol/min/mg.

In the case of `CCn1cc(C(=O)NC(=S)Nc2cccc3ccccc23)c(-c2ccccc2)nc1=O`, the Activity stood at 13.2 nmol/min/mg.

Consider `CCn1cc(C(=O)NC(=S)Nc2ccc(F)cc2)c(-c2ccccc2)nc1=O`, for which the Activity was 38.2 nmol/min/mg.

With `CCn1cc(C(=O)NC(=S)Nc2ccc(Cl)cc2)c(-c2ccccc2)nc1=O`, the Activity was found to be 61 nmol/min/mg.

With `CCn1cc(C(=O)NC(=S)Nc2ccccc2)c(-c2ccccc2)nc1=O`, the Activity stood at 32 nmol/min/mg.

Regarding `CCn1cc(C(=O)NC(=S)NCc2ccccc2)c(-c2ccccc2)nc1=O`, the Activity is 50.2 nmol/min/mg.

For `CCn1cc(C(=O)NC(=S)Nc2ccccc2C)c(-c2ccccc2)nc1=O`, the Activity came out at 38 nmol/min/mg.

Consider `CCn1cc(C(=O)NC(=S)Nc2ccc(Br)cc2)c(-c2ccccc2)nc1=O`, for which the Activity stood at 16.4 nmol/min/mg.

A further assay has the same target. The experiment in a line: Inhibition of human His-tagged Hsp90 alpha N-terminal domain ATPase activity expressed in Escherichia coli BL21(DE3) at 25 uM assessed as ADP formation by pyruvate kinase/lactate dehydrogenase-coupled assay.
As to `CCn1cc(C(=O)NC(=S)Nc2ccc(C)cc2)c(-c2ccccc2)nc1=O`, the Activity stood at 55 nmol/min/mg.

Consider `CCn1cc(C(=O)NC(=S)Nc2ccc(C(N)=O)cc2)c(-c2ccccc2)nc1=O`, for which the Activity was determined as 64 nmol/min/mg.

For the compound `CCn1cc(C(=O)NC(=S)Nc2ccc(OC)cc2)c(-c2ccccc2)nc1=O`, the Activity was determined as 28.5 nmol/min/mg.

For `CCn1cc(C(=O)NC(=S)Nc2cccc3ccccc23)c(-c2ccccc2)nc1=O`, the Activity was determined as 24.4 nmol/min/mg.

As for `CCn1cc(C(=O)NC(=S)Nc2ccc(F)cc2)c(-c2ccccc2)nc1=O`, the Activity was determined as 53.1 nmol/min/mg.

Consider `CCn1cc(C(=O)NC(=S)Nc2ccc(Cl)cc2)c(-c2ccccc2)nc1=O`, for which the Activity was 70.4 nmol/min/mg.

Turning to `CCn1cc(C(=O)NC(=S)Nc2ccccc2)c(-c2ccccc2)nc1=O`, the Activity was determined as 40.4 nmol/min/mg.

Regarding `CCn1cc(C(=O)NC(=S)NCc2ccccc2)c(-c2ccccc2)nc1=O`, the Activity was 61.2 nmol/min/mg.

In the case of `CCn1cc(C(=O)NC(=S)Nc2ccccc2C)c(-c2ccccc2)nc1=O`, the Activity was 50.1 nmol/min/mg.

`CCn1cc(C(=O)NC(=S)Nc2ccc(Br)cc2)c(-c2ccccc2)nc1=O`: the Activity came out at 26.6 nmol/min/mg.

Source of the values: ChEMBL document CHEMBL3867422, “Design and synthesis of pyrimidinyl acyl thioureas as novel Hsp90 inhibitors in invasive ductal breast cancer and its bone metastasis” (Eur J Med Chem, 2016).
